Consider 1 compound from patent US20230097883A1, “ERGOTHIONEINE PET COMPOUNDS AND METHODS OF USE THEREOF” (VANDERBILT UNIVERSITY, priority 2021, published 2023).

Holding throughout (format): in vivo, mouse
The test system of series [1] is 5XFAD mice. Nature of the series: Elevated zero maze after ERGO treatment. The procedure:
(§1) To address our primary question whether longitudinal consumption of ERGO as a potent antioxidant benefit the brain, three cohorts of animals (n=12 non-treated WT control, n=12 non-treated 5XFAD, and n=18 ERGO-treated 5XFAD) were used (FIG. 3.2A). Starting at the age of 8 weeks, the animals were treated with high doses of ERGO solution (25-50 mg/Kg) formulated in double distilled (dd) water via oral gavage three times a week over the course of eight weeks. To reduce bias in the behavioral experiments with regard to the potential stress during gavage treatment, non-treated animals underwent the identical gavage process with the vehicle, water, only. The efficacy of the therapy was evaluated by behavioral testing, followed by three different non-invasive PET imaging sessions to assess biomarkers related to AD pathology. In addition to assessing Abeta levels and glucose metabolism using the [^11C]PIB and [^18F]FDG probes, respectively; we also tested for the first time whether oxidative stress could be used as an indicator of response to therapy using the [^11C]ERGO PET radioligand. […]
We recorded exploratory activity in open versus closed zones of a standard EZM during a 5-min trial. […] Closed zones had walls of approximately 30 cm height and light levels of 215-280 lux depending on where they were measured. […]

The test system of series [2] is Abeta. The series is described as follows: [11C]PIB PET imaging of Abeta levels after ERGO treatment. The procedure: as §1, with “pathology.” for “pathology. In addition to assessing Abeta levels and glucose metabolism using the [^11C]PIB and [^18F]FDG probes, respectively; we also tested for the first time whether oxidative stress could be used as an indicator of response to therapy using the [^11C]ERGO PET radioligand.”
Non-invasive, in vivo, and robust assessment of Abeta levels in the brains of treated and non-treated 5XFAD mice were performed using the [^11C]PIB PET probe, the chemical structure of which has been described elsewhere. […] We co-registered the PET/CT image to an MRI template for quantitative PET analysis of regional uptake in the brain. […]

Series [3] deals with Abeta. Nature of the series: Abeta immunohistochemistry (6E10 antibody) of brain sections after ERGO treatment. The settings on record: ERGO-treated versus non-treated 5XFAD mice, approx. 4 months of age. Here is the method: To confirm the in vivo observations, animals were perfused, and the brain sections were stained with anti-Abeta antibody, 6E10. […] In particular, we observed a clear difference in the hippocampus, pyramidal cortex and thalamus of non-treated compared to ERGO-treated 5XFAD mice (FIG. 3L, 3.30, 3.3R).
Quantitative analysis of the PET imaging and IHC data was performed using imageJ software. The data was imported to GraphPad Prism version 9 for Mac (GraphPad Software, San Diego, Calif., USA) for statistical analysis. Differences between groups were tested using unpaired t-test.

Series [4] has as its system glucose metabolism. Nature of the series: [18F]FDG PET imaging of glucose metabolism after ERGO treatment. The settings on record: 6-month-old 5XFAD, ERGO 6 doses each 50 mg/Kg during 2 weeks, versus non-treated 5XFAD, n=3. Here is the method:
The brain consumes a significant amount of glucose, approximately 25% of the body's glucose. It is well known that glucose metabolism is diminished in the early onset of AD. Therefore, [^18F]FDG PET imaging to assess glucose levels could be used for AD diagnosis. For this purpose, three cohorts of age-matched mice (6-month-old, n=3 for each cohort), including WT, non-treated 5XFAD and ERGO-treated 5XFAD (6 doses, each 50 mg/Kg during the course of 2 weeks) were studied. Afterward, animals were injected with [^18F]FDG probe (15 MBq, 100 μL/mouse) and underwent […] dynamic PET scans and CT scans.
The dynamic acquisition was divided into twelve 5-second frames, four 60-second frames, five 120-second frames, three 5-min frames, and six 10-min scans. The data from all possible lines of response (LOR) were saved in the list mode raw data format. The raw data were then binned into 3D sinograms with a span of 3 and ring difference of 47. The images were reconstructed into transaxial slices (128×128×159) with voxel sizes of 0.0815×0.0815×0.0796 cm^3, using the MAP algorithm with 16 subsets, 4 iterations, and a beta of 0.0468. For anatomical co-registration, immediately following the PET scans, the mice received a CT scan in a NanoSPECT/CT (Mediso, Wash. D.C.) at an X-ray beam intensity of 90 mAs and x-ray peak voltage of 45 kVp. […]

As for `C[N+](C)(C)[C@@H](Cc1c[nH]c(=S)[nH]1)C(=O)[O-]` [ERGO, L-ergothioneine], in series [1] (5XFAD mice, ERGO 25-50 mg/Kg oral gavage three times a week over eight weeks), the “adverse effects on activity or anxiety-like behavior” value is given as “no adverse effects”. In addition, in series [1] (ERGO-treated 5XFAD mice (each group), 5-min trial), the “time spent exploring the closed zones” value is recorded as about 60%. The “[11C]PIB PET signal in brain” value in series [2] (ERGO-treated 5XFAD, 4-month-old, n=7, ~15 MBq [11C]PIB) is “very weak, and resembled the background signal found in WT mice”. For the same compound, the “[11C]PIB % ID/g higher in non-treated 5XFAD compared to treated counterparts, every brain subregion” value in series [2] (non-treated n=5 versus ERGO-treated n=7 5XFAD mice) is on record as 30-50%. In addition, in series [3], the “decrease in Abeta level (pixel counts), hippocampus” value turned out to be 4 fold; the “decrease in Abeta level (pixel counts), pyramidal cortex” value was 5 fold; the “decrease in Abeta level (pixel counts), thalamus” value came out at 2 fold. The “glucose levels in the brain ([18F]FDG uptake, SUV)” value in series [4] is given as “significantly elevated”.
